pEC50, pIC50: −log10 of the molar value.

The test system of one test is HCC-1187 cells. Description: CDK9 cell activity test (Cell Titer-GLO cell growth inhibition), HCC1187. In kind it is cell-based. The note with it: Homo sapiens, HCC1187, 72 h. As to the method:
(§1) In these experiments, the cell line MV-4-11 was cultured in IMDM culture solution (containing 100 U/mL penicillin and 0.1 g/L streptomycin), the cell line HCC1187 was cultured in RPMI-1640 culture solution (containing 100 U/mL penicillin and 0.1 g/L streptomycin) containing 10% fetal bovine serum, the cell line Mia Paca-2 was cultured in DMEM (containing 100 U/mL penicillin and 0.1 g/L streptomycin) containing 10% fetal bovine serum and 2.5% horse serum, and the cell line A375 was cultured in RPMI-1640 culture solution (containing 100 U/mL penicillin and 0.1 g/L streptomycin) containing 10% fetal bovine serum. All cells were cultured in a saturated humidity incubator with 37 °C and 5% CO2.
(§2) When MV-4-11 cells, HCC-1187 cells, Mia Paca-2 cells and A375 cells grew to 80% -90% confleuncy, they were digested with trypsin, resuspended, counted and diluted to a certain cell density with complete medium, and inoculated into 96-well plate at 100 µL/well. […] The cells were lysed by mixing evenly for 2 minutes using a shaker, incubated at room temperature for 60 minutes to stabilize the chemiluminescence signal, and the chemiluminescence was read by PE EnVision microtiter plate reader. The cell growth inhibition rate Inh%=(DMSO well - compound treatment well)/(DMSO well - background well)×100 was calculated, and the cell growth IC50 value was obtained by fitting with GraphPad Prism 5 .

A further test deals with A375 cells. Description: CDK9 cell activity test (Cell Titer-GLO cell growth inhibition), A375. The class given is cell-based. The note with it: Homo sapiens, A-375, 72 hours. The procedure:
as §1, §2

A further test concerns MV-4-11 cells. Description: CDK9 cell activity test (Cell Titer-GLO cell growth inhibition), MV-4-11. In kind it is cell-based. Particulars: Homo sapiens, MV4-11, 72 hours. The procedure:
as §1
When MV-4-11 cells, HCC-1187 cells, Mia Paca-2 cells and A375 cells grew to 80% -90% confleuncy, they were digested with trypsin, resuspended, counted and diluted to a certain cell density with complete medium, and inoculated into 96-well plate at 100 µL/well. With complete medium as background control, they were cultured overnight in a saturated humidity incubator with 37°C and 5% CO2. The compound was diluted to 200-fold of the final concentration using DMSO, 3 µL of DMSO storage solution of the above compound was added to 197 µL of complete medium, 50 µL of compound diluted in medium was added to cells in each well, and cultivated in a saturated humidity incubator with 37°C and 5% CO2 for 72 hours. After 72 hours, the culture plate was placed at room temperature for equilibrium, and 40 µl of Cell Titer-GLO® reagent was added to each well. The cells were lysed by mixing evenly for 2 minutes using a shaker, incubated at room temperature for 60 minutes to stabilize the chemiluminescence signal, and the chemiluminescence was read by PE EnVision microtiter plate reader. The cell growth inhibition rate Inh%=(DMSO well - compound treatment well)/(DMSO well - background well)×100 was calculated, and the cell growth IC50 value was obtained by fitting with GraphPad Prism 5 .

For the next test, the target named is CDK9 (Homo sapiens, UniProt P50750). Description: experiment of inhibiting kinase activity (Caliper mobility shift assay), CDK9. In kind it is biochemical. Summed up: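 Compounds were tested at 10 nM and 100 nM, or as 10-point 3-fold dilutions from 10 µM, in replicate wells. Kinase was preincubated with compound for 10 min at room temperature before ATP/substrate addition. Substrate conversion was read by mobility shift, and IC50 was fitted by a variable-slope log(inhibitor) vs response model.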

For a further test, the system named is Mia Paca-2 cells. Description: CDK9 cell activity test (Cell Titer-GLO cell growth inhibition), Mia Paca-2. In kind it is cell-based. The note with it: Homo sapiens, 72 hours. As to the method: as §1, §2
The target in another test is T1, JAK2 (Mus musculus, UniProt Q62120).
T1 construct: endogenous in cells; host or cells: BAF3
Description: JAKs cell activity test: JAK2_pSTAT5 in IL-3-induced BAF3 cells. The note with it: pSTAT5, IL-3-induced BAF3 cells. The class given is cell-based. As to the method:
THP1 cells were collected by centrifugation, resuspended with 1×HBSS, counted and diluted to a certain cell density. They were inoculated in a 384-well plate and cultured in a saturated humidity incubator with 37 °C and 5% CO2. The compound (DMSO final volume of 0.3%) was added to THP1 cells (10 doses in duplicates) and cultured in a saturated humidity incubator with 37 °C and 5% CO2. hIL-4 was added to stimulate cells and cultured in a saturated humidity incubator with 37 °C and 5% CO2. The lysis solution was added and incubated at room temperature. According to the instructions of AlphaLISA SureFire Ultra p-STAT6 detection kit, the lysis solution was transferred to pSTAT6 detection system, and the ALPHA signal was read by PE Envision microplate reader. The inhibition rate Inh%=((DMSO-sample)/(DMSO-background))×100 was calculated. IC50 was obtained by fitting with GraphPad Prism non-linear regression equation, and y=Bottom+(Top-Bottom)/(1+10^((LogIC50-x)×hillslope)), where x was the concentration of the compound and y was the inhibition rate.
JAK2_pSTAT5 was tesed in IL-3-induced BAF3 cells according to the above steps, and JAK3_pSTAT5 was tested in IL-2-induced CTLL-2 cells (without serum stimulation) according to the above steps.

CDK9, sequence (P50750 whole entry): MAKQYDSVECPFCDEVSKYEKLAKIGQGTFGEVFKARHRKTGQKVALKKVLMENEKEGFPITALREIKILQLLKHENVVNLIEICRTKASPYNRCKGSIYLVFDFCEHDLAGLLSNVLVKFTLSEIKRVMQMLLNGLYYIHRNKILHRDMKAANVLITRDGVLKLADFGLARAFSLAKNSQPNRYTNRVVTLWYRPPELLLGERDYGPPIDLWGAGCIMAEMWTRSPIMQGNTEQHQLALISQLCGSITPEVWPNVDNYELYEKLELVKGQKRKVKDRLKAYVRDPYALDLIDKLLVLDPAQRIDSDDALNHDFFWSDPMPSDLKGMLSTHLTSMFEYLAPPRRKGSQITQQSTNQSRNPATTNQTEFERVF
CDK9, sequence (O60563 whole entry partner): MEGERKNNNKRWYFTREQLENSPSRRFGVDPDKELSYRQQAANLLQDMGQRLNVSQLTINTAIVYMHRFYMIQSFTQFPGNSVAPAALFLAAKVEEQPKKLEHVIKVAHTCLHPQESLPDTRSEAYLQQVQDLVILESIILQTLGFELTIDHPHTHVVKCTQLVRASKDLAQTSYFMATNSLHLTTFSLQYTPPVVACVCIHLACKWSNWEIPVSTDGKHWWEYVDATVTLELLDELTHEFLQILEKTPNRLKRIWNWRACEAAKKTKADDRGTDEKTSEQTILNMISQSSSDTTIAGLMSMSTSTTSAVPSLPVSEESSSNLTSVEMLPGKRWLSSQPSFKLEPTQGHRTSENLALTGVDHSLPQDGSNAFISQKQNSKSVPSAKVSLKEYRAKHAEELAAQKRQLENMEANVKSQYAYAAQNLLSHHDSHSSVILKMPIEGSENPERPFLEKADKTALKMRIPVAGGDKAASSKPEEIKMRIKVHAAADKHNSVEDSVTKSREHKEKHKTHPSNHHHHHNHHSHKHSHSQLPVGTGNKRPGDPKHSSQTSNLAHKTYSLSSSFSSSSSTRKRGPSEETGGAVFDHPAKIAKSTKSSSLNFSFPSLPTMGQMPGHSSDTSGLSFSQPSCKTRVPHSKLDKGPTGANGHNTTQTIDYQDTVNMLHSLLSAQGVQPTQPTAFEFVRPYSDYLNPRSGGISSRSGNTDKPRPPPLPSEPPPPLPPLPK
T1 sequence (Q62120 whole entry): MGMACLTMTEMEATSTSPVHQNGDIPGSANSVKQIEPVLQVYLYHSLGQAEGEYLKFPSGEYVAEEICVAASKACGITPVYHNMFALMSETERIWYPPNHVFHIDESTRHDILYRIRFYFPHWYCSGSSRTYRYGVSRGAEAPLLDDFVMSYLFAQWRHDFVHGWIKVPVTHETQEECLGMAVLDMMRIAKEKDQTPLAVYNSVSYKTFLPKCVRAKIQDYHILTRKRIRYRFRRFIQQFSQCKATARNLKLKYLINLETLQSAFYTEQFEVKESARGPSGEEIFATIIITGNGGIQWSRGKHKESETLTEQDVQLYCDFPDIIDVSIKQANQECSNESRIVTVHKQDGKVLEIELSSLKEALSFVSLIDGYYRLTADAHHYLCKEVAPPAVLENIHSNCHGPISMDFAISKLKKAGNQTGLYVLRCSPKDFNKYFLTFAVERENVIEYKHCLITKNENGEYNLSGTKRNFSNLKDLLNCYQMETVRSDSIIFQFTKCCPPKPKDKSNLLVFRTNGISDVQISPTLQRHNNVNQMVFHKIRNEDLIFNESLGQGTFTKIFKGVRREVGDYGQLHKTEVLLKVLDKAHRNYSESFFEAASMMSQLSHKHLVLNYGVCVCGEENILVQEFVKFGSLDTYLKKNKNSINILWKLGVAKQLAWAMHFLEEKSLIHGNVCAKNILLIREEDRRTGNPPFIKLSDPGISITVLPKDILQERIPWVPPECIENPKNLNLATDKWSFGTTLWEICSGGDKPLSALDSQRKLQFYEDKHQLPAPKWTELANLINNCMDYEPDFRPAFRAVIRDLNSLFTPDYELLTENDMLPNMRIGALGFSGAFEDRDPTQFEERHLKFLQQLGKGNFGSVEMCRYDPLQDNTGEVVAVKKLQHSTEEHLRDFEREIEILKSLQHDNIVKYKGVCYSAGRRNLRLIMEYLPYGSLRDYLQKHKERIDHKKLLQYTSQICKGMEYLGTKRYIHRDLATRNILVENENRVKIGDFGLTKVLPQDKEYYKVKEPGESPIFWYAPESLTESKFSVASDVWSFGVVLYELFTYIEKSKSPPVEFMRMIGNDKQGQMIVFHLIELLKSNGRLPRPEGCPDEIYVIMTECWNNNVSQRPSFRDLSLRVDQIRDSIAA

With `CN1CCOCCOc2cc(Nc3ncc(F)c(-c4ccc(C(=O)NCC#N)cc4)n3)ccc2OCC1` [Example 16, N-(cyanomethyl)-4-(5-fluoro-2-((7-methyl-2,3,6,7,8,9-hexahydro-5H-benzo[b][1,4,7]trioxa[10]azacyclododecan-13-yl)amino)pyrimidin-4-yl)benzamide], the pIC50 in the test on HCC-1187 cells (first HCC1187 column (c2)) was 5.30 to 6.00; in the test with HCC-1187 cells (second HCC1187 column (c3)), 6.00 to 7.00; with A375 cells, 6.00 to 7.00; with MV-4-11 cells, above 7.00; on CDK9 (kinase activity assay, Table 3) it was above 7.30; in the test with Mia Paca-2 cells it was 6.00 to 7.00. Moreover, the inhibition at 0.01 µM on CDK9 (at 10 nM, read-out: inhibition rate CDK9) was 40 to 79%. Moreover, the inhibition at 0.1 µM on CDK9 (at 100 nM, read-out: inhibition rate CDK9) was above 80%.

As for `CN1CCOCCOc2cc(Nc3nc(-c4cnn(C(CC#N)C5CCCC5)c4)c4cc[nH]c4n3)ccc2OCC1` (stereo not drawn) [Example 26, 3-cyclopentyl-3-(4-(2-((7-methyl-2,3,6,7,8,9-hexahydro-5H-benzo[b][1,4,7]trioxa[10]azacyclododecan-13-yl)amino)-7H-pyrrolo[2,3-d]pytimidin-4-yl)-1H-pyrazol-1-yl)propionitrile], the pEC50 on JAK2 is 5.30 to 6.30.

The values are drawn from patent publication EP4592286A1, “MACROCYCLIC NITROGEN-CONTAINING CROWN ETHER COMPOUND AND USE THEREOF AS PROTEIN KINASE INHIBITOR” (Artivila Biopharma, priority 2022, dated 2024).
